Source: US10961189B2, “Spiro-lactam NMDA receptor modulators and uses thereof” (Aptinyx Inc., priority 2016, dated 2021)

Legend:
Sprague Dawley rats [1] = assay: Porsolt forced swim test; type: in vivo, rat; set-up: key to Significance vs. vehicle: Yes: statistically significant (p<=0.05) from vehicle at dose level shown; No: not statistically significant from vehicle
Protocol: A non-clinical in vivo pharmacology study (Porsolt assay) was performed to measure antidepressant-like effects. A negative control (0.5% sodium carboxymethyl cellulose in 0.9% sterile saline vehicle) and a positive control (fluoxetine) are shown for comparison against test compound. The study allowed for the evaluation of the effects of each compound on the Porsolt forced swim test as assessed by the rats' response (reduced floating time) during a 5-minute swimming test.
(§1) Male 2-3 month old Sprague Dawley rats were used (Harlan, Indianapolis, Ind.). Rats were housed in Lucite cages with aspen wood chip bedding, maintained on a 12:12 light:dark cycle (lights on at 5 AM), and given ad libitum access to Purina lab chow (USA) and tap water throughout the study.
The Porsolt forced swim test adapted for use in rats was performed as described by Burgdorf et al., (The long-lasting antidepressant effects of rapastinel (GLYX-13) are associated with a metaplasticity process in the medial prefrontal cortex and hippocampus. Neuroscience 308:202-211, 2015). Animals were placed in a 46 cm tall×20 cm in diameter clear glass tube filled to 30 cm with tap water (23±1° C.) for 15 min on the first day (habituation) and 5 min on the subsequent test day. Positive control fluoxetine was dosed 3 times (24 h, 5 h and 1 h) prior to testing. Animals were tested 1 h or 24 h post-dosing with the test compounds or vehicle. Animals received a 15 min habituation session 1 day before the 5 min test. A subset of compounds tested at 1 h post-dosing were retested at 1 wk post-dosing in the same sets of animals. Water was changed after every other animal. Animals were videotaped, and floating time as defined as the minimal amount of effort required to keep the animals head above water was scored offline by a blinded experimenter with high inter-rater reliability (Pearson's r>0.9).
Each compound tested at dose level shown. Significance vs. vehicle group for each experiment is marked. […] A compound marked “No” was not statistically significant from vehicle. Data was averaged for test compound and vehicle groups (N approximately 8 per group) and the percent reduction in floating for group treated with test compound relative to group treated with vehicle is shown.

NMDAR2A = target: T1, NMDAR2A (Homo sapiens, UniProt Q12879); assay: [3H]MK-801 binding in NMDAR expressing HEK cell membranes (facilitation of NMDAR activation); type: biochemical; settings: 50 μM glutamate; for EC50: read-out: B: log EC50 (converted); for Emax: 0.25 h, read-out: A: % maximal [3H]MK-801 binding relative to 1 mM glycine
T1 construct: expressed in transfected cells; host or cells: HEK cells (membrane extract)
T1 sequence (Q12879 23-1464, species assumed, other chains not shown): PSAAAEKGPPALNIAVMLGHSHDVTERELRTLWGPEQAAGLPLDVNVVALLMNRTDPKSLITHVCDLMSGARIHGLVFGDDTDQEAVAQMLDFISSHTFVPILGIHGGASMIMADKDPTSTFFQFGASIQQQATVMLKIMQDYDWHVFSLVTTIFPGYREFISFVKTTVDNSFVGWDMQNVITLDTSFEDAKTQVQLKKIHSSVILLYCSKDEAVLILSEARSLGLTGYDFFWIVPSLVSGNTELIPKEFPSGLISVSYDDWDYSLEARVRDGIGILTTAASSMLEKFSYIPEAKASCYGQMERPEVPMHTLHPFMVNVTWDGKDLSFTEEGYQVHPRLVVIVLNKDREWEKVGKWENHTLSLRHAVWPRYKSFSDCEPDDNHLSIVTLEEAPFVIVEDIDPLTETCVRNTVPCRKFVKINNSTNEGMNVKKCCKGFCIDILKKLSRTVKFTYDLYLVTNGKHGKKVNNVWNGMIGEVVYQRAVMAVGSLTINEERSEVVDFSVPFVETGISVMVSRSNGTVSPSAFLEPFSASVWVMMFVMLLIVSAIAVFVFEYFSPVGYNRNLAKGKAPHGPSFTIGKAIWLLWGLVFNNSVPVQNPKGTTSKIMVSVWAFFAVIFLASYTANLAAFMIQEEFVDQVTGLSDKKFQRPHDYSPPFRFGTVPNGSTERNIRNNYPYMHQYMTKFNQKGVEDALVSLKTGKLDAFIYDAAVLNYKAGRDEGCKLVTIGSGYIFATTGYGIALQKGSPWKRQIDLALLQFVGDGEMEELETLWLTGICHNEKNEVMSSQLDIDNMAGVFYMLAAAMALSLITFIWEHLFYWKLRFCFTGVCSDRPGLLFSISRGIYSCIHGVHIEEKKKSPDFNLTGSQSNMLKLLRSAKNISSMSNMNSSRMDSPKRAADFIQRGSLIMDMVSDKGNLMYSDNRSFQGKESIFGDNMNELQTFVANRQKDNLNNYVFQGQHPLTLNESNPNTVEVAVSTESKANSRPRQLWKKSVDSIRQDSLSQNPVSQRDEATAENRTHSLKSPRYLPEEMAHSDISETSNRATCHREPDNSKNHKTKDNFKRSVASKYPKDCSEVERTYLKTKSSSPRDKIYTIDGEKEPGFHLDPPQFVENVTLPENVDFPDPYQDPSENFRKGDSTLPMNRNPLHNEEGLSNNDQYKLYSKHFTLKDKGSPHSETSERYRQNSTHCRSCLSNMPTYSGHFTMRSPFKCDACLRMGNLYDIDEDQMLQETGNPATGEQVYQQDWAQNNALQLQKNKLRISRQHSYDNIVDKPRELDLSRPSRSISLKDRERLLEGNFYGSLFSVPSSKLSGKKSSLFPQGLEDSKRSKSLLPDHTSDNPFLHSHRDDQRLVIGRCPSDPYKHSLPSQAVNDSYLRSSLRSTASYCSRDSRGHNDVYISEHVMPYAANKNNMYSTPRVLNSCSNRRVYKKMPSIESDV
Protocol: (§2) Assays were conducted as described by Moskal et al., “GLYX-13: a monoclonal antibody-derived peptide that acts as an N-methyl-D-aspartate receptor modulator,” Neuropharmacology, 49, 1077-87, 2005. These studies were designed to determine if the test compounds act to facilitate NMDAR activation in NMDAR2A, NMDAR2B, NMDAR2C or NMDAR2D expressing HEK cell membranes as measured by increases in [^3H]MK-801 binding.
(§3) In the assay, 300 μg of NMDAR expressing HEK cell membrane extract protein was preincubated for 15 minutes at 25° C. in the presence of saturating concentrations of glutamate (50 μM) and varying concentrations of test compound (1×10^15M−1×10^−7M), or 1 mM glycine. Following the addition of 0.3 μCi of [^3H]MK-801 (22.5 Ci/mmol), reactions were again incubated for 15 minutes at 25° C. (nonequilibrium conditions). Bound and free [^3H]MK-801 were separated via rapid filtration using a Brandel apparatus.
(§4) In analyzing the data, the DPM (disintegrations per minute) of [^3H]MK-801 remaining on the filter were measured for each concentration of test compound or for 1 mM glycine. The DPM values for each concentration of a ligand (N=2) were averaged. The baseline value was determined from the best fit curve of the DPM values modeled using the GraphPad program and the log(agonist) vs. response (three parameters) algorithm was then subtracted from all points in the dataset. The % maximal [^3H]MK-801 binding was then calculated relative to that of 1 mM glycine: all baseline subtracted DPM values were divided by the average value for 1 mM glycine. The EC50 and % maximal activity were then obtained from the best fit curve of the % maximal [^3H]MK-801 binding data modelled using the GraphPad program and the log(agonist) vs. response (three parameters) algorithm.
(§5) The tables below summarize the results for the wild type NMDAR agonists NMDAR2A, NMDAR2B, NMDAR2C, and NMDAR2D, and whether the compound is not an agonist (−), is an agonist (+), or is a strong agonist (++), where column A is based on the % maximal [^3H]MK-801 binding relative to 1 mM glycine (−=0; <100%=+; and >100%=++); and column B is based on log EC50 values (0=−; ≥1×10^−9 M (e.g., −8)=+; and <1×10^−9 M (e.g., −10)=++).

NMDAR2B = target: T2, NMDAR2B (Homo sapiens, UniProt Q13224); assay: as above; type: biochemical; settings: 50 μM glutamate; for EC50: read-out: B: log EC50 (converted); for Emax: 0.25 h, read-out: A: % maximal [3H]MK-801 binding relative to 1 mM glycine
T2 construct: expressed in transfected cells; host or cells: HEK cells (membrane extract)
T2 sequence (Q13224 27-1484, species assumed, other chains not shown): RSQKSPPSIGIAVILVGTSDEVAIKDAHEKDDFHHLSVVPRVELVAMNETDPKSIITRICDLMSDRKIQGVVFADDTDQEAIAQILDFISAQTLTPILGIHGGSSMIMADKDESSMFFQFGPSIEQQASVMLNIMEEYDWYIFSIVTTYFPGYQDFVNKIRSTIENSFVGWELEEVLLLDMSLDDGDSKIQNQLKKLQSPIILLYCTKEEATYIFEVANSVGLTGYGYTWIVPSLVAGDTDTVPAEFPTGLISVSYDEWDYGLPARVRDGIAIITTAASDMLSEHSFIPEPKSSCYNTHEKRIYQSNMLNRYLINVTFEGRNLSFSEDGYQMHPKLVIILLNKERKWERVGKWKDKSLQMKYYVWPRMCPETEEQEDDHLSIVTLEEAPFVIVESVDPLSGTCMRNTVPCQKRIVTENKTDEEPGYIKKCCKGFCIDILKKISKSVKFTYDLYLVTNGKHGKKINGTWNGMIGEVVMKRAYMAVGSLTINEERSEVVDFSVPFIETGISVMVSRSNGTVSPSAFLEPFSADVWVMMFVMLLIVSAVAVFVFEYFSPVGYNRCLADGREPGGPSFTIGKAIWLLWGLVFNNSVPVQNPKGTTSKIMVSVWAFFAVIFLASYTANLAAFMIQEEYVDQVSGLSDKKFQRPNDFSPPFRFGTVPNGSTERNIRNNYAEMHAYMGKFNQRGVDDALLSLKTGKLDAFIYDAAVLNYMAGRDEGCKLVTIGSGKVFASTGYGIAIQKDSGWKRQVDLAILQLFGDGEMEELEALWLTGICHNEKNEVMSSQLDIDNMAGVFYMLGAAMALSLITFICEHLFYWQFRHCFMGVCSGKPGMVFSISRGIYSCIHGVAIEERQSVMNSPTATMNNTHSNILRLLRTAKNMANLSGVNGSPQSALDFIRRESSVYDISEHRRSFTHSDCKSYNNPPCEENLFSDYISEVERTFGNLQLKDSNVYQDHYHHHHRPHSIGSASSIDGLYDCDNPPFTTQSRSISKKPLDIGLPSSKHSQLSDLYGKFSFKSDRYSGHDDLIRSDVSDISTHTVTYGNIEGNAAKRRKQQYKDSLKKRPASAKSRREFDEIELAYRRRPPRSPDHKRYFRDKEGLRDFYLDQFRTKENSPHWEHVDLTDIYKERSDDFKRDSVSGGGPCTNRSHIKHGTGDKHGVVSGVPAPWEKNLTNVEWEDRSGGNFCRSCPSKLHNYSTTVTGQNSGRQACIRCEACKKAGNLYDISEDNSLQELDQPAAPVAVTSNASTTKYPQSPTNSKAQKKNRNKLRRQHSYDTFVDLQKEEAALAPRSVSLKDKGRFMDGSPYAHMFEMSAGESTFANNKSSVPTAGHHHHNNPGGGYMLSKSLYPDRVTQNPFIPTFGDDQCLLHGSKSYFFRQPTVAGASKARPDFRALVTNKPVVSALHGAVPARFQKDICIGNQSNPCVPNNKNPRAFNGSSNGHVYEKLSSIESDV
Protocol: as §2, §3, §4, §5

[2] = oral pharmacokinetics (plasma, brain, CSF); type: in vivo, Sprague Dawley rats; settings: rat, per os 10 mg/kg; for AUC(0-t) / bioavailability / Tmax / Cmax: Sprague-Dawley, plasma, po, 10 mg/kg; for Tmax: normal saline (* in 5% NMP, 5% Solutol HS, 90% normal saline), read-out: Tmax; for Cmax: read-out: Cmax
Protocol: In another experiment, Sprague Dawley rats were dosed per os using a normal saline formulation containing 10 mg/kg of the compounds identified in the table below (except for the compounds marked with an asterisk (“*”) that were delivered in 5% NMP, 5% Solutol® HS and 90% normal saline formulation). Plasma, brain, and CSF samples were analyzed at various time points over a 24 hour period.

IV pharmacokinetics = type: in vivo, Sprague Dawley rats; settings: rat, normal saline (* in 5% NMP, 5% Solutol HS, 90% normal saline); for AUC(0-t) / half-life / C0 / Vd: Sprague-Dawley, in vivo, iv, 2 mg/kg; for C0: read-out: C0; for Vd: read-out: Vss; for CI: intravenous 2 mg/kg
Excerpt: The table below summarizes the results of the IV pharmacokinetics.

Sprague Dawley rats [3] = assay: Bennett model of mechanical analgesia (sciatic nerve chronic constriction, paw withdrawal threshold); type: in vivo, rat; settings: 150 mg/kg PO, example gabapentin control value;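 further: log paw withdrawal threshold scaled from vehicle group mean (0%) to naive 15 g value (100%)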
Protocol: The Bennett model of mechanical analgesia is used to assess the analgesic effects of compounds as measured by paw withdrawal threshold. Bennett GJ, Xie YK, “A peripheral mononeuropathy in rat that produces disorders of pain sensation like those seen in man,” Pain 33:87-107, 1988. […] Vehicle animals receive the surgery and then receive vehicle rather than test compound. Animals were tested 1 hr, 24 h and 1 wk post-test compound or vehicle administration.
as §1, with “used. Harlan was the supplier for all studies.” for “used (Harlan, Indianapolis, Ind.).”
Rats were anesthetized using inhaled isoflurane (2.5%). Sciatic nerve chronic constriction nerve injury surgery was performed as previously described (Bennett and Xie, 1988). An incision (˜1.5 cm in length) was made with a scalpel blade dorsally through skin on the right hind limb, parallel and posterior to femur. Using a small pointed hemostat, the biceps femoris and gluteus superficialis muscles were separated. Using curved blunt forceps, the common sciatic nerve was isolated and exposed. For the mechanical analgesia studies, the whole sciatic nerve was ligated. Using hemostats/forceps and chromic gut (5-0), the nerve was loosely ligated with a square knot; 3 ligatures, 1 mm apart were placed on the nerve. […] Testing occurred approximately 2 weeks post-surgery.
During testing, rats were acclimated to the surface of a suspended wire mesh grid (1 cm×1 cm, with the wire being 0.3 cm in diameter) for 15-20 min. Starting from the smallest, each Von Frey filament was pressed perpendicularly to the plantar surface of the affected (ipsilateral) hind paw until slightly bent and then held for 6 second. If an obvious hind paw withdrawal or a flinching behavior immediately after the withdrawal of the filament was not observed, the next larger filament was used in the same manner. In case of a response, a lower filament was used. This was repeated until six responses were collected.
For all studies, animals were baselined prior to study start to test for allodynia (defined as a paw withdrawal threshold under 5). A subset of animals was tested with gabapentin (150 mg/kg, PO) to ensure at least 50% analgesia. Once it was confirmed animals were ready for study initiation, animals were balanced across groups. All study investigators were blind to treatment conditions. Animals were dosed with 0.1, 1 or 10 mg/kg of test compound via oral gavage (PO), control sets of animals were dosed with gabapentin (150 mg/kg, PO) or vehicle (0.5% Na-CMC in 0.9% sterile saline, PO). Testing occurred 1 h post-dosing with animals retested 24 hrs and 1 week post-dosing. The percent analgesia calculations for each animal were made using the following equation: % analgesia=[(log(x)−y)/((log (z)−y)]*100, where x=the paw withdrawal threshold for the drug-treated animal in grams, y=the average of the log(x) values for the vehicle treated group, and z=the paw withdrawal threshold for naïve animals in grams (historical value of 15 used).
The results are shown in the table below where the percentage of analgesia is measured at 1 hour, 24 hours, and 1 week after compound administration. Since each study had its own gabapentin control group, an example gabapentin control value is shown.

[4] = 20 mg/kg, dosed 3 times (24 h, 5 h and 1 h) prior to testing, 1 h post-dose

Row | Compound | % reduction in float time (Sprague Dawley rats [1]; 0.1 mg/kg, 1 wk post-dose) [%] | Significance vs. vehicle (Sprague Dawley rats [1]; 0.1 mg/kg, 1 wk post-dose) | % reduction in float time (Sprague Dawley rats [1]; 0.1 mg/kg, 1 h post-dose) [%] | Significance vs. vehicle (Sprague Dawley rats [1]; 0.1 mg/kg, 1 h post-dose) | EC50 (NMDAR2A) [nM] | Emax (NMDAR2A) [%] | EC50 (NMDAR2B) [nM] | Emax (NMDAR2B) [%] | AUC(0-t) [2] [ng·h/mL] | bioavailability [2] [%] | Tmax [2] [min] | Cmax [2] [ng/mL] | CSF Cmax [2] [ng/mL] | Brain Cmax [2] [ng/mL] | AUC(0-t) (IV pharmacokinetics) [ng·h/mL] | half-life (IV pharmacokinetics) [min] | C0 (IV pharmacokinetics) [ng/mL] | Vd (IV pharmacokinetics) [L/kg] | CI (IV pharmacokinetics) [mL/min/kg] | A: % maximal [3H]MK-801 binding relative to 1 mM glycine (NMDAR2A) | further results
1 | NC(=O)C(CO)N1CC2(CCCCC2)C1=O (single isomer, unassigned) [AS, 3-hydroxy-2-(l-oxo-2-azaspiro[3.5]nonan-2-yl)propanamide] | 32.0 | No | 82.3 | Yes (statistically significant (p<=0.05) from vehicle at dose level shown) | < 1 | < 100 | < 1 | < 100 |  |  |  |  |  |  |  |  |  |  |  |  | 
2 | NC(=O)C(CO)N1CC2(CCCCC2)C1=O (single isomer, unassigned) [AT, 3-hydroxy-2-(l-oxo-2-azaspiro[3.5]nonan-2-yl)propanamide] | 55.6 | Yes (statistically significant (p<=0.05) from vehicle at dose level shown) | 63.4 | Yes (statistically significant (p<=0.05) from vehicle at dose level shown) | < 1 |  | < 1 |  | 8340 | 80 | 15 | 6520 | 1758 | 120 | 2090 | 143 | 2760 | 1.14 | 15.94 | + (<100%=+) | A: % maximal [3H]MK-801 binding relative to 1 mM glycine (NMDAR2B): + (<100%=+)
3 | CC1CCC2(CC1)CN(C(CCC(N)=O)C(N)=O)C2=O (single isomer, unassigned) [BF, 2-(7-methyl-1-oxo-2-azaspiro[3.5]nonan-2-yl)pentanediamide] |  |  | 84.4 | Yes (statistically significant (p<=0.05) from vehicle at dose level shown) | < 1 |  | < 1 |  | 5290 | 100 | 30 | 3020 | 56.6 | 61.2 | 973 | 90.6 | 2220 | 1.52 | 34.13 | + (<100%=+) | A: % maximal [3H]MK-801 binding relative to 1 mM glycine (NMDAR2B): + (<100%=+)
4 | C[C@@H](O)[C@@H](C(N)=O)N1CC2(CCCCC2)C1=O [Compound AA, (2S,3R)-3-hydroxy-2-(1-oxo-2-azaspiro[3.5]nonan-2-yl)butanamide] |  |  | 42.0 | Yes (statistically significant (p<=0.05) from vehicle at dose level shown) |  | 0 | < 1 | < 100 | 1540 | 78 | 19.8 | 1230 |  |  | 397 | 35.4 | 608 | 2.23 | 84.91 |  | % reduction in float time (Sprague Dawley rats [1]; 0.1 mg/kg, 24 h post-dose): 48.60%; Significance vs. vehicle (Sprague Dawley rats [1]; 0.1 mg/kg, 24 h post-dose): Yes (statistically significant (p<=0.05) from vehicle at dose level shown)
5 | CNCCC(Oc1ccc(C(F)(F)F)cc1)c1ccccc1 (centres unmarked) [Fluoxetine, reference compound] |  |  |  |  |  |  |  |  |  |  |  |  |  |  |  |  |  |  |  |  | % reduction in float time (Sprague Dawley rats [1]; [4]): 54%; Significance vs. vehicle (Sprague Dawley rats [1]; [4]): Yes (statistically significant (p<=0.05) from vehicle at dose level shown)
6 | NCC1(CC(=O)O)CCCCC1 [Gabapentin, reference compound] |  |  |  |  |  |  |  |  |  |  |  |  |  |  |  |  |  |  |  |  | % analgesia (Sprague Dawley rats [3]; 1 wk post-dosing): 0%; % analgesia (Sprague Dawley rats [3]; 1 h post-dosing): 72%; % analgesia (Sprague Dawley rats [3]; 1 h post-dosing, listed as gabapentin): at least 50%
